Measured values from patent US5084453A, “1-carboxy-1-vinyloxyimino aminothiazole cephalosporin derivatives” (priority 1988, dated 1992).
≈ marks a conversion by molar mass, not a printed value. Where two headings read alike, the source gives them in different places.

Key:
Assay in all cases: in vitro antibacterial activity, agar plate dilution method
Type in all cases: cell-based
A. calcoaceticus No. 4 = settings: Acinetobacter calcoaceticus, NO.4; 10^6 CFU/ml; Mueller Hinton agar, 37° C., 16 hours; read-out: MIC
Method: (§1) Now, the in vitro antibacterial activities of the compounds of the present invention against various microorganisms, were measured by the following agar plate dilution method.
(§2) One platinum loopfull of each test microorganism incubated overnight in Mueller Hinton broth, was inoculated to Mueller Hinton agar (MH agaer). Such culture media containing various antibiotics in various concentrations were prepared. After incubation at 37° C. for 16 hours, the minimum inhibitory concentrations (MIC μg/ml) were measured.

E. cloacae 963 = settings: Enterobacter cloacae, 963, 16 h
Method: as §1, §2

E. cloacae Nek 39* = settings: Enterobacter cloacae
Method: as §1, §2

E. coli CSH(RE45)* = settings: Escherichia coli; 10^6 CFU/ml; β-Lactamase-producing strain; 37° C., 16 hours; read-out: MIC
Method: as §1, §2

E. coli CSH2(RK1)* = settings: Escherichia coli, 16 h
Method: as §1, §2

E. coli GN5482* = settings: Escherichia coli
Method: as §1, §2

E. coli NIHJ JC2 = settings: Escherichia coli, NIHJJC2; 10^6 CFU/ml; Mueller Hinton agar, 37° C., 16 hours; read-out: MIC
Method: as §1, §2

K. oxytoca GN10650* = settings: Klebsiella oxytoca, GN10650, 16 h
Method: as §1, §2

K. pneumoniae No. 42* = settings: Klebsiella pneumoniae, 16 h
Method: as §1, §2

K. pneumoniae PC1-602 = settings: Klebsiella pneumoniae
Method: as §1, §2

M. morganii GN5407* = settings: Morganella morganii
Method: as §1, §2

P. vulgaris HX-19 = settings: Proteus vulgaris, HX19; 10^6 CFU/ml; Mueller Hinton agar, 37° C., 16 hours; read-out: MIC
Method: as §1, §2

P. vulgaris No. 33* = settings: Proteus vulgaris
Method: as §1, §2

Ps. aeruginosa AK 109 = settings: Pseudomonas aeruginosa, AK109; 10^6 CFU/ml; Mueller Hinton agar, 37° C., 16 hours; read-out: MIC
Method: as §1, §2

Ps. aeruginosa AKR17 = settings: Pseudomonas aeruginosa, AKR17; 10^6 CFU/ml; Mueller Hinton agar, 37° C., 16 hours; read-out: MIC
Method: as §1, §2

Ps. aeruginosa IFO3445 = settings: Pseudomonas aeruginosa
Method: as §1, §2

Ps. cepacia 23 = system: Ps. cepacia 23
Method: as §1, §2

S. aureus 209P NIHJ-JC1 = settings: Staphylococcus aureus
Method: as §1, §2

S. marcescens IAM 1184 = settings: Serratia marcescens
Method: as §1, §2

S. marcescens No. 16-2* = settings: Serratia marcescens
Method: as §1, §2

[1] = 10^6 CFU/ml, β-Lactamase-producing strain, 37° C., 16 hours, read-out: MIC
[2] = PC1602, 10^6 CFU/ml, Mueller Hinton agar, 37° C., 16 hours, read-out: MIC
[3] = Burkholderia cepacia, 23, 10^6 CFU/ml, Mueller Hinton agar, 37° C., 16 hours, read-out: MIC
[4] = IAM1184, 10^6 CFU/ml, Mueller Hinton agar, 37° C., 16 hours, read-out: MIC

SMILES | MIC (A. calcoaceticus No. 4) [µg/mL] | MIC (E. cloacae 963) [µg/mL] | MIC (E. cloacae Nek 39*; [1]) [µg/mL] | MIC (E. coli CSH(RE45)*) [µg/mL] | MIC (E. coli CSH2(RK1)*) [µg/mL] | MIC (E. coli NIHJ JC2) [µg/mL] | MIC (K. oxytoca GN10650*) [µg/mL] | MIC (K. pneumoniae No. 42*) [µg/mL] | MIC (K. pneumoniae PC1-602; PC1602, 16 h) [µg/mL] | MIC (M. morganii GN5407*; GN5407, 16 h) [µg/mL] | MIC (P. vulgaris HX-19) [µg/mL] | MIC (Ps. aeruginosa AK 109) [µg/mL] | MIC (Ps. aeruginosa AKR17) [µg/mL] | MIC (Ps. aeruginosa IFO3445; IFO3445, 16 h) [µg/mL] | MIC (S. aureus 209P NIHJ-JC1; 16 h) [µg/mL] | MIC (S. marcescens IAM 1184; IAM1184, 16 h) [µg/mL] | MIC (S. marcescens No. 16-2*; [1]) [µg/mL] | MIC (E. coli GN5482*; GN5482, 16 h) [µg/mL] | MIC (P. vulgaris No. 33*; [1]) [µg/mL] | MIC (Ps. cepacia 23; [3]) [µg/mL] | other results
C=C(O/N=C(\C(=O)N[C@@H]1C(=O)N2C(C(=O)[O-])=C(C[n+]3cccc(C(=O)O)c3)CS[C@H]12)c1csc(N)n1)C(=O)O [Example 3, 7β-[2-(2-aminothiazol-4-yl)-2-(1-carboxy-1-vinyloxyimino)acetamido]-3-(3-carboxy-1-pyridinio)methyl-3-cephem-4-carboxylate (syn-isomer)] | 25 (≈ 43.5 µM) | 0.1 (≈ 0.174 µM) | 3.12 (≈ 5.43 µM) | 0.05 (≈ 0.087 µM) | 0.05 (≈ 0.087 µM) | 0.2 (≈ 0.348 µM) | 0.2 (≈ 0.348 µM) | 0.39 (≈ 0.679 µM) | 0.025 (≈ 0.0435 µM) | 0.05 (≈ 0.087 µM) | 0.0125 (≈ 0.0218 µM) | 100 (≈ 174 µM) | > 100 | 6.25 (≈ 10.9 µM) | 6.25 (≈ 10.9 µM) | 0.05 (≈ 0.087 µM) | 3.12 (≈ 5.43 µM) | – | – | – | MIC (E. coli GN5482*; GN5482, 10^6 CFU/ml, β-Lactamase-producing strain, 37° C., 16 hours, read-out: MIC): 3.12 µg/mL (≈ 5.43 µM); MIC (P. vulgaris No. 33*; 16 h): 0.05 µg/mL (≈ 0.087 µM); MIC (Ps. cepacia 23; Burkholderia cepacia, 23, 16 h): 6.25 µg/mL (≈ 10.9 µM)
C=C(O/N=C(\C(=O)N[C@@H]1C(=O)N2C(C(=O)[O-])=C(C[n+]3cccc(C(N)=O)c3)CS[C@H]12)c1csc(N)n1)C(=O)O [Example 4, 7β-[2-(2-aminothiazol-4-yl)-2-(1-carboxy-1-vinyloxyimino)acetamido] vinyloxyimino)acetamido]-3-(3-carbamoyl-1-pyridinio)methyl-3-cephem-4-carboxylate (syn-isomer)] | 3.12 (≈ 5.44 µM) | 0.05 (≈ 0.0872 µM) | – | 0.025 (≈ 0.0436 µM) | 0.025 (≈ 0.0436 µM) | 0.05 (≈ 0.0872 µM) | 0.1 (≈ 0.174 µM) | 0.1 (≈ 0.174 µM) | – | – | 0.0125 (≈ 0.0218 µM) | 12.5 (≈ 21.8 µM) | > 100 | 1.56 (≈ 2.72 µM) | 1.56 (≈ 2.72 µM) | – | – | 0.2 (≈ 0.349 µM) | 0.0125 (≈ 0.0218 µM) | 3.12 (≈ 5.44 µM) | MIC (E. cloacae Nek 39*; 16 h): 0.2 µg/mL (≈ 0.349 µM); MIC (K. pneumoniae PC1-602; [2]): 0.0125 µg/mL (≈ 0.0218 µM); MIC (M. morganii GN5407*; GN5407, 10^6 CFU/ml, β-Lactamase-producing strain, 37° C., 16 hours, read-out: MIC): 0.0125 µg/mL (≈ 0.0218 µM); MIC (S. marcescens IAM 1184; [4]): 0.0125 µg/mL (≈ 0.0218 µM); MIC (S. marcescens No. 16-2*; 16 h): 0.78 µg/mL (≈ 1.36 µM)
C=C(O/N=C(\C(=O)N[C@@H]1C(=O)N2C(C(=O)[O-])=C(C[n+]3ccc(C(=O)O)cc3)CS[C@H]12)c1csc(N)n1)C(=O)O [Example 5, 7β-[2-(2-aminothiazol-4-yl)-2-(1-carboxy-1-vinyloxyimino)acetamido]-3-(4-carboxy-1-pyridinio)methyl-3-cephem-4-carboxylate (syn-isomer)] | 50 (≈ 87 µM) | 0.2 (≈ 0.348 µM) | 3.12 (≈ 5.43 µM) | 0.05 (≈ 0.087 µM) | 0.2 (≈ 0.348 µM) | 0.2 (≈ 0.348 µM) | 0.39 (≈ 0.679 µM) | 0.39 (≈ 0.679 µM) | 0.025 (≈ 0.0435 µM) | 0.025 (≈ 0.0435 µM) | < 0.006 | 25 (≈ 43.5 µM) | > 100 | – | – | 0.025 (≈ 0.0435 µM) | – | 1.56 (≈ 2.72 µM) | 0.0125 (≈ 0.0218 µM) | 12.5 (≈ 21.8 µM) | MIC (Ps. aeruginosa IFO3445; IFO3445, 10^6 CFU/ml, Mueller Hinton agar, 37° C., 16 hours, read-out: MIC): 25 µg/mL (≈ 43.5 µM); MIC (S. aureus 209P NIHJ-JC1; 10^6 CFU/ml, Mueller Hinton agar, 37° C., 16 hours, read-out: MIC): 12.5 µg/mL (≈ 21.8 µM); MIC (S. marcescens No. 16-2*; 16 h): 6.25 µg/mL (≈ 10.9 µM)
C=C(O/N=C(\C(=O)N[C@@H]1C(=O)N2C(C(=O)[O-])=C(C[n+]3ccc(C(N)=O)cc3)CS[C@H]12)c1csc(N)n1)C(=O)O [Example 6, 7β-[2-(2-aminothiazol-4-yl)-2-(1-carboxy-1-vinyloxyimino)acetamido]-3-(4-carbamoyl-1-pyridinio)methyl-3-cephem-4-carboxylate (syn-isomer)] | 12.5 (≈ 21.8 µM) | 0.05 (≈ 0.0872 µM) | – | 0.025 (≈ 0.0436 µM) | 0.025 (≈ 0.0436 µM) | 0.05 (≈ 0.0872 µM) | 0.2 (≈ 0.349 µM) | 0.1 (≈ 0.174 µM) | – | 0.025 (≈ 0.0436 µM) | 0.0125 (≈ 0.0218 µM) | 12.5 (≈ 21.8 µM) | > 100 | 6.25 (≈ 10.9 µM) | 1.56 (≈ 2.72 µM) | – | 3.12 (≈ 5.44 µM) | 0.39 (≈ 0.68 µM) | 0.0125 (≈ 0.0218 µM) | 3.12 (≈ 5.44 µM) | MIC (E. cloacae Nek 39*; 16 h): 1.56 µg/mL (≈ 2.72 µM); MIC (K. pneumoniae PC1-602; [2]): < 0.006 µg/mL; MIC (S. marcescens IAM 1184; [4]): < 0.006 µg/mL
